In US10400064B2, “Glycerol-based polycarbonates” (TRUSTEES OF BOSTON UNIVERSITY, priority 2014, dated 2019):

Tested on: A549 cells
Test: In vitro toxicity analysis, viability after 3 days of treatment
Type: cell-based
Conditions: incubated with treatment for 3 days
Description: Scale bar=200 nm. […] Cells were incubated with treatment for 5 days, and viability was assessed. […] Right lower panel: In vitro toxicity analysis of PGC-Cisplatin and cisplatin alone in A549 cells. Cells were incubated with treatment for 3 days, and viability was assessed.
PGC-Pax and PGC-Cisplatin nanoparticles are synthesized using a miniemulsion technique. Briefly, the polymer is added to dichloromethane, and the organic phase is dispersed via sonication into an aqueous phase, containing sodium dodecyl sulfate as a surfactant.

With `N.N.[Cl][Pt][Cl]` [cisplatin] the IC50 was 0.9273 µg/mL.
